Experimental findings from ChEMBL document CHEMBL2417377, “Hit-to-lead optimization and kinase selectivity of imidazo[1,2-a]quinoxalin-4-amine derived JNK1 inhibitors” (Bioorg Med Chem Lett, 2013) are described below.

A value given as a limit tells only on which side of the number the result lay.

Common to all, as to conditions: PC-3
Test [1] has as its target Mitogen-activated protein kinase kinase kinase 20 (Homo sapiens) (UniProt Q9NYL2). In words: Inhibition of ZAK in human PC3 cell lysates at 10 uM using desthiobiotin-tagged ATP probe AX9989 followed by trypsinization by LC/MS analysis.
Test [2] has as its target Calcium/calmodulin-dependent protein kinase type II subunit gamma (Homo sapiens) (UniProt Q13555). In words: Inhibition of CaMK2gamma in human PC3 cell lysates at 10 uM using desthiobiotin-tagged ATP probe AX9989 followed by trypsinization by LC/MS analysis.
The target of test [3] is T1, Ephrin type-A receptor 1 (Homo sapiens) (UniProt P21709).
T1 sequence (whole entry): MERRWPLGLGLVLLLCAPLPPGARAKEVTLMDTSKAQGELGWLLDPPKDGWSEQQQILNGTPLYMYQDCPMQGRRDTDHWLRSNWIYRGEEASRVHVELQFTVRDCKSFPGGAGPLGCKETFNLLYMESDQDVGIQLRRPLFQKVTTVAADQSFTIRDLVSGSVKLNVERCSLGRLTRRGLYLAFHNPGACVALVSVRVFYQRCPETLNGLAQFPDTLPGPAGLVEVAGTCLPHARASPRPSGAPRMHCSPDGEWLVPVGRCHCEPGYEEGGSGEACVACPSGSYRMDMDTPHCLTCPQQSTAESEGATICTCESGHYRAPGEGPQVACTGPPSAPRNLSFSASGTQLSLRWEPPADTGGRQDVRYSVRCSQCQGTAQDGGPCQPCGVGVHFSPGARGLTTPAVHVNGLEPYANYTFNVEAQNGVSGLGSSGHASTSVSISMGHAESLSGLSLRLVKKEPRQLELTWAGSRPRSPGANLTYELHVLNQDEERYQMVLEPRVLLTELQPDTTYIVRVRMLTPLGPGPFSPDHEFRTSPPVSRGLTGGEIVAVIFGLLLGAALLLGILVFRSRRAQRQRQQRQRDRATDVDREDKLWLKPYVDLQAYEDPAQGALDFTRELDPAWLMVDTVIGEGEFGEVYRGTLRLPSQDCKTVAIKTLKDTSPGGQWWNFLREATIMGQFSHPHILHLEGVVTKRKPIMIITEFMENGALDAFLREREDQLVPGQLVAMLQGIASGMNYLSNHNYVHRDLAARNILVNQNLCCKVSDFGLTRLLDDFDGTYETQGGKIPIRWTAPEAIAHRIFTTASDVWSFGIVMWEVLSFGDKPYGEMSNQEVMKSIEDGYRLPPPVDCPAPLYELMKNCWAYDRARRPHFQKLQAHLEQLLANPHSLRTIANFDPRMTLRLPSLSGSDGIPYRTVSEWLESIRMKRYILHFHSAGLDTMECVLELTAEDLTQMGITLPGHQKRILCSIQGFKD
Put plainly: Inhibition of EphA1 in human PC3 cell lysates at 10 uM using desthiobiotin-tagged ATP probe AX9989 followed by trypsinization by LC/MS analysis.

Test [4] concerns the target Rho-associated protein kinase 2 (Homo sapiens) (UniProt O75116). Put plainly: Inhibition of ROCK2 in human PC3 cell lysates at 10 uM using desthiobiotin-tagged ATP probe AX9989 followed by trypsinization by LC/MS analysis.
For test [5], the target named is T2, Serine/threonine-protein kinase 3 (Homo sapiens) (UniProt Q13188).
T2 sequence (whole entry): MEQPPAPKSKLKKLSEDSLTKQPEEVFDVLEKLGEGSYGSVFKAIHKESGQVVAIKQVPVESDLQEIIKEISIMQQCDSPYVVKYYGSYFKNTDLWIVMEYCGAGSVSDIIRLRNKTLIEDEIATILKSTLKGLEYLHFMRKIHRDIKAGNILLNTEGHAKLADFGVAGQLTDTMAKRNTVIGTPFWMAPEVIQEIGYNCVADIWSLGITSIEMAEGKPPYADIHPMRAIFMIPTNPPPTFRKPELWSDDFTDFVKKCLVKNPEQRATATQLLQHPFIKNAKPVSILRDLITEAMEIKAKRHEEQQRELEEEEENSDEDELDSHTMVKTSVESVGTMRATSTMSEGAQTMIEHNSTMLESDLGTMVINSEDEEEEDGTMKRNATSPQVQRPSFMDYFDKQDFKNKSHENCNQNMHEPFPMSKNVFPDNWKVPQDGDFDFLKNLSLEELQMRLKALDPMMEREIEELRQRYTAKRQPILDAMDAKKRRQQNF
In words: Inhibition of MST2 in human PC3 cell lysates at 10 uM using desthiobiotin-tagged ATP probe AX9989 followed by trypsinization by LC/MS analysis.

Test [6] deals with Mitogen-activated protein kinase 3 (Homo sapiens) (UniProt P27361). In words: Inhibition of Erk1 in human PC3 cell lysates at 10 uM using desthiobiotin-tagged ATP probe AX9989 followed by trypsinization by LC/MS analysis.
Test [7] addresses Interferon-induced, double-stranded RNA-activated protein kinase (Homo sapiens) (UniProt P19525). In words: Inhibition of PKR in human PC3 cell lysates at 10 uM using desthiobiotin-tagged ATP probe AX9989 followed by trypsinization by LC/MS analysis.
Test [8] concerns the target T3, Serine/threonine-protein kinase Nek8 (Homo sapiens) (UniProt Q86SG6).
T3 sequence (whole entry): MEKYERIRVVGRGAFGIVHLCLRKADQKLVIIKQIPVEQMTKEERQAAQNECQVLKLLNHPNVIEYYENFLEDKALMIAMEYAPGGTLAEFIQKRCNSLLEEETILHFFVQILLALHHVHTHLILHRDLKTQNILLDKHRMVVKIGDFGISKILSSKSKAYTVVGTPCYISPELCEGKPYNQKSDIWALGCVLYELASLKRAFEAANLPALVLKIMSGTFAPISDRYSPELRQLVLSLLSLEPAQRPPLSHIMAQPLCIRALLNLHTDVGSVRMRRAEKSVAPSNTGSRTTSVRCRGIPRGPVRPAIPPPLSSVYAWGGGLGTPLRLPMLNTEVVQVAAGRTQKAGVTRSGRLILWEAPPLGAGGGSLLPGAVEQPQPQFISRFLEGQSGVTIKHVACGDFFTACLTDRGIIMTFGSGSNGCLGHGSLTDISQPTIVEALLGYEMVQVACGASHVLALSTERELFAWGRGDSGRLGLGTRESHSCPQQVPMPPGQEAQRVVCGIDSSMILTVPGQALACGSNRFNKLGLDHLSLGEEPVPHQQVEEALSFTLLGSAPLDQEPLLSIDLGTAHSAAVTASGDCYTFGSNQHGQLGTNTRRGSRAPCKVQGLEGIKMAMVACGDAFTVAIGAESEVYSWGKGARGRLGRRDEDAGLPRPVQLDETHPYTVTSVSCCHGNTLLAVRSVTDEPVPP
In words: Inhibition of NEK8 in human PC3 cell lysates at 10 uM using desthiobiotin-tagged ATP probe AX9989 followed by trypsinization by LC/MS analysis.

Test [9] concerns the target Protein kinase C beta type (Homo sapiens) (UniProt P05771). Put plainly: Inhibition of PKCbeta in human PC3 cell lysates at 10 uM using desthiobiotin-tagged ATP probe AX9989 followed by trypsinization by LC/MS analysis.

The term inhibition denotes the drop in the measured response relative to a control, in per cent.

Chain of Calcium/calmodulin-dependent protein kinase type II subunit gamma (Homo sapiens) (Q13555 whole entry): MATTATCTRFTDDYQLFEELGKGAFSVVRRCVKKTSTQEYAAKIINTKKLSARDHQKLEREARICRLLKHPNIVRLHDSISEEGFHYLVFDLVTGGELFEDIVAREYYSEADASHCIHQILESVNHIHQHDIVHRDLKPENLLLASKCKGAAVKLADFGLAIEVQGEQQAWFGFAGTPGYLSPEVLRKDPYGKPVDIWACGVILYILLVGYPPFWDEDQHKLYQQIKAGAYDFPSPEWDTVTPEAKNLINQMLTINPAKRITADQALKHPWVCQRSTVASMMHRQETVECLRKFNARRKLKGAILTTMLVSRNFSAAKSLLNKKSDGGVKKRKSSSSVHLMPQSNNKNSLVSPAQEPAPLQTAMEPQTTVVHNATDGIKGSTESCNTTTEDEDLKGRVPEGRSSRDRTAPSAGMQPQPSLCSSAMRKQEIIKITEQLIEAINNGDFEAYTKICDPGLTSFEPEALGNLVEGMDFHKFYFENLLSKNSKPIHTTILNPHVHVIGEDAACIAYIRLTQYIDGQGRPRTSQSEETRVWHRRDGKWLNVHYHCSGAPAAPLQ
Chain of Rho-associated protein kinase 2 (Homo sapiens) (O75116 whole entry, looked up): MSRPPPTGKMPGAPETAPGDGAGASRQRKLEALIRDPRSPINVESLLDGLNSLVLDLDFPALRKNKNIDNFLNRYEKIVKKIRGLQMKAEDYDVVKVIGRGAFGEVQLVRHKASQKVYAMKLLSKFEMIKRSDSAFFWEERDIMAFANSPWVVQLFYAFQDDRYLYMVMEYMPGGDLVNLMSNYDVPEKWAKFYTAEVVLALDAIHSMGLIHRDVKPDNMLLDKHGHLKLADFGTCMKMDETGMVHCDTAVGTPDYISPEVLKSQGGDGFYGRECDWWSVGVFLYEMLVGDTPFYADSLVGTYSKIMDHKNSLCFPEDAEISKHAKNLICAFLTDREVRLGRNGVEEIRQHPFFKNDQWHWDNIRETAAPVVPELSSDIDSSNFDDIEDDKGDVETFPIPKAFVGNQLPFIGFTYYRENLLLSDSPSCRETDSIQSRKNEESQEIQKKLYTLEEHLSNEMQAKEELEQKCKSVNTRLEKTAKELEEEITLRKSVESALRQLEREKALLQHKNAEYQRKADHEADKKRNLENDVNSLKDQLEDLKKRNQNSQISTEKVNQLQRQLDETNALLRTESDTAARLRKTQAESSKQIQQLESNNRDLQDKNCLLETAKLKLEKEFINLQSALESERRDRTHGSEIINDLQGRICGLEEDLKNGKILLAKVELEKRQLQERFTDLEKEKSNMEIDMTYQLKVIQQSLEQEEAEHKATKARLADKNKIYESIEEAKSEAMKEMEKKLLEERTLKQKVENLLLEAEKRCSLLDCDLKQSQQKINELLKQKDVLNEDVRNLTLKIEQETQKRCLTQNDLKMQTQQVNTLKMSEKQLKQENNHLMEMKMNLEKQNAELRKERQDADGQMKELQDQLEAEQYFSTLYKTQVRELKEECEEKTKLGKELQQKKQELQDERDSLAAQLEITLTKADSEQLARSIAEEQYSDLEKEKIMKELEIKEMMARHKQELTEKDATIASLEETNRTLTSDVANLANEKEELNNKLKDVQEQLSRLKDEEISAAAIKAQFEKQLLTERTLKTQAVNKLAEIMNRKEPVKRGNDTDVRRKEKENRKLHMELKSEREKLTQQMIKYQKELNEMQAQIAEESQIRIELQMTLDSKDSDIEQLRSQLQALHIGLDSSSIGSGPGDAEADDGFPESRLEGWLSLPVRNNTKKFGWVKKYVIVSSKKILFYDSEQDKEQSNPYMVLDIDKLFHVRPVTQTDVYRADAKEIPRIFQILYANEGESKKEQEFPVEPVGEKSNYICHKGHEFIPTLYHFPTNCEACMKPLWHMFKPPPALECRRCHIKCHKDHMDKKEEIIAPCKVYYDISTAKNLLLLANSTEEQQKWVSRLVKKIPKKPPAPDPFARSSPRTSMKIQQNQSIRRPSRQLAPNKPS
Chain of Protein kinase C beta type (Homo sapiens) (P05771 2-671 limits assumed): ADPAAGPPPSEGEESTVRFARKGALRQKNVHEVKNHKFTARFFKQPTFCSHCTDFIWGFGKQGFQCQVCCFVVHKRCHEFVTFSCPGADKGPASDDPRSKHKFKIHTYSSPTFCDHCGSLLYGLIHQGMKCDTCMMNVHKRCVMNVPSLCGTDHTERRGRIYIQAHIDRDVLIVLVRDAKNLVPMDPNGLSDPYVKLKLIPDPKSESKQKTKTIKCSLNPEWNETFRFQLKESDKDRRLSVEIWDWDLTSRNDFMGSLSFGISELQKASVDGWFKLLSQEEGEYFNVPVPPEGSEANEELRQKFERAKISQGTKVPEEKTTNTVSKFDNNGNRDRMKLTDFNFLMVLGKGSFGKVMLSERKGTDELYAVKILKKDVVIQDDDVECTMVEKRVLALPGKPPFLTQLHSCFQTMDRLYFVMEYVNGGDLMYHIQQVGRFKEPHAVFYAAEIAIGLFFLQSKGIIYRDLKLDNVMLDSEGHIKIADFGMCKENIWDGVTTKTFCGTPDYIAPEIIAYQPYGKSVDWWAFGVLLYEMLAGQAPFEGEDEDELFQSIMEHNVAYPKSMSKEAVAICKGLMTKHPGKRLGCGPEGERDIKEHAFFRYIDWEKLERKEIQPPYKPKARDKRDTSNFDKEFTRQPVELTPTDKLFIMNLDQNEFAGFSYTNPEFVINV
Chain of Interferon-induced, double-stranded RNA-activated protein kinase (Homo sapiens) (P19525 whole entry): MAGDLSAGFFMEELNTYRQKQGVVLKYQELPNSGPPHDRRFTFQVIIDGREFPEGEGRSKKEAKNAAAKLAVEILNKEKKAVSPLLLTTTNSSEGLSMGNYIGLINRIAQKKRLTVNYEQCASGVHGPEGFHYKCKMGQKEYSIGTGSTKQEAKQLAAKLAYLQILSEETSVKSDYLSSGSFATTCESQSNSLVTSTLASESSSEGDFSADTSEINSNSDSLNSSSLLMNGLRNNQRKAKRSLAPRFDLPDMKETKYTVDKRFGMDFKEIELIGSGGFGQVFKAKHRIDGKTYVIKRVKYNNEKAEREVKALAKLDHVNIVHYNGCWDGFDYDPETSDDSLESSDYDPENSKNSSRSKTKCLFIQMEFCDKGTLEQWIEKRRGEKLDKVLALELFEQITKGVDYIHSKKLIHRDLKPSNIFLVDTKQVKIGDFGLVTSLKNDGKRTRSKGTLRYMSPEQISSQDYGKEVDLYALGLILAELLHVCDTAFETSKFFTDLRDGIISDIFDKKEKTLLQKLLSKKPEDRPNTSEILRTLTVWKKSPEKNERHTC
Chain of Mitogen-activated protein kinase kinase kinase 20 (Homo sapiens) (Q9NYL2 2-800 limits assumed): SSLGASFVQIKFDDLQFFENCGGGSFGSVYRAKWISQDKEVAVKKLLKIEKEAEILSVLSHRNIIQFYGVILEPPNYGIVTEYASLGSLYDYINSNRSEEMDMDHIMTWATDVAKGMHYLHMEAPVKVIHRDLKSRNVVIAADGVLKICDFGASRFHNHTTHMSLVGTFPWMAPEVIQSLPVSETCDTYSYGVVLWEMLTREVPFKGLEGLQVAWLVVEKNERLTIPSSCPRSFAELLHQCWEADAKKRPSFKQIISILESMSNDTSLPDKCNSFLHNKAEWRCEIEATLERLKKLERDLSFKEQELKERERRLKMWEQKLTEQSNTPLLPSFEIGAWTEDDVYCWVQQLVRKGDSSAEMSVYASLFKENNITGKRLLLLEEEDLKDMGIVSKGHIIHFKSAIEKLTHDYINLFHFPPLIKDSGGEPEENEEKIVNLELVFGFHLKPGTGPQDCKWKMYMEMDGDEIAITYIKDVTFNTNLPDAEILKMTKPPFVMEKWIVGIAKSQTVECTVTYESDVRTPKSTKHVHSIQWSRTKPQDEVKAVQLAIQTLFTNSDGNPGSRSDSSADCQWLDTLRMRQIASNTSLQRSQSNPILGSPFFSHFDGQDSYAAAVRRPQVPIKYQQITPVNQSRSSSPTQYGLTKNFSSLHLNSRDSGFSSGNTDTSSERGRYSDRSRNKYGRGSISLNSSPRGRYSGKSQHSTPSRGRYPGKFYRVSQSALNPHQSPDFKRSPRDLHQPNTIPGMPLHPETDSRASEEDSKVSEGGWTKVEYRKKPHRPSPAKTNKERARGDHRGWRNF
Chain of Mitogen-activated protein kinase 3 (Homo sapiens) (P27361 whole entry): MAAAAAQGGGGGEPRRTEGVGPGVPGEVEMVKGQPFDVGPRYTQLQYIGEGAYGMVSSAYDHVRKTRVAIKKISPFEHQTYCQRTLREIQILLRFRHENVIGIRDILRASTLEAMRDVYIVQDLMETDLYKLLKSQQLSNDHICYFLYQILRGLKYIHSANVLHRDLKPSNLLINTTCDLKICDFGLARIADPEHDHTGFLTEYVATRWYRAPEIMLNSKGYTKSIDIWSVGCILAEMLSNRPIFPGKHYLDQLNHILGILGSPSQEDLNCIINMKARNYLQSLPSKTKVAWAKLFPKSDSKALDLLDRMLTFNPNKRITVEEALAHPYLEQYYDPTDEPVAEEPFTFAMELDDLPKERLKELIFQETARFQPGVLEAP

For the compound `CC[C@@H](NC(=O)c1ccc2nc(N[C@H]3CC[C@H](O)CC3)c3nccn3c2c1)c1ccccc1`, the inhibition is below 35% in test [1]; 48.7% in test [2]; below 35% in [3]; below 35% in [4]; below 35% in test [5]; below 35% in test [6]. Also, the inhibition in test [7], in test [8] and in test [9] was below 35% each time.

For `C[C@@H](NC(=O)c1ccc2nc(N[C@H]3CC[C@H](O)CC3)c3nccn3c2c1)c1ccccc1`, the inhibition in test [1], in test [2], in test [3], in test [4], in test [5] and in test [6] was below 35% throughout. In addition, the inhibition in [7], in test [8] and in [9] was below 35% throughout.

`CCC[C@@H](NC(=O)c1ccc2nc(N[C@H]3CC[C@H](O)CC3)c3nccn3c2c1)c1ccccc1`: the inhibition in [1], in [2], in [3], in test [4], in [5] and in test [6] was below 35% throughout. The inhibition in test [7], in test [8] and in test [9] was below 35% each time.

Consider `C[C@H](NC(=O)c1ccc2nc(N[C@H]3CC[C@H](O)CC3)c3nccn3c2c1)c1ccccc1`, for which the inhibition in test [1], in test [2], in test [3], in test [4], in [5] and in test [6] was below 35% each time. The inhibition in test [7], in test [8] and in test [9] was below 35% each time.

For `O=C(NC1(c2ccccc2)CC1)c1ccc2nc(N[C@H]3CC[C@H](O)CC3)c3nccn3c2c1`, the inhibition in [1], in [2], in test [3], in test [4], in test [5] and in test [6] was below 35% throughout. In addition, the inhibition in [7], in test [8] and in test [9] was below 35% each time.

Turning to `NC(=O)c1ccc2nc(N[C@H]3CC[C@H](O)CC3)c3nccn3c2c1`, the inhibition in test [1], in test [2], in [3], in test [4], in [5] and in [6] was below 35% throughout. The inhibition in test [7], in test [8] and in test [9] was below 35% in each case.

As for `CC(C)(NC(=O)c1ccc2nc(N[C@H]3CC[C@H](O)CC3)c3nccn3c2c1)c1ccccc1`, the inhibition in [1], in test [2], in [3], in test [4], in [5] and in [6] was below 35% throughout. Besides, the inhibition in [7], in test [8] and in test [9] was below 35% throughout.

With `O=C(N[C@H](CO)c1ccccc1)c1ccc2nc(N[C@H]3CC[C@H](O)CC3)c3nccn3c2c1`, the inhibition in [1], in test [2], in [3], in [4], in test [5] and in [6] was below 35% in each case. The inhibition in test [7], in [8] and in test [9] was below 35% in each case.

Consider `O=C(NC1(Cc2ccc(F)cc2)CC1)c1ccc2nc(N[C@H]3CC[C@H](O)CC3)c3nccn3c2c1`, for which the inhibition in test [1], in [2], in test [3], in test [4], in [5] and in [6] was below 35% in each case. The inhibition in test [7], in test [8] and in [9] was below 35% throughout.

For `O=C(NC1(c2ccc(F)cc2)CC1)c1ccc2nc(N[C@H]3CC[C@H](O)CC3)c3nccn3c2c1`, the inhibition in test [1], in test [2], in test [3], in [4], in test [5] and in test [6] was below 35% each time. For the same compound, the inhibition in [7], in test [8] and in test [9] was below 35% in each case.

As to `O=C(NC1(c2ccccc2)CCC1)c1ccc2nc(N[C@H]3CC[C@H](O)CC3)c3nccn3c2c1`, the inhibition in test [1], in test [2], in test [3], in [4], in test [5] and in test [6] was below 35% in each case. Besides, the inhibition in test [7], in test [8] and in [9] was below 35% in each case.

`O=C(O)c1ccc2nc(N[C@H]3CC[C@H](O)CC3)c3nccn3c2c1`: the inhibition in [1], in test [2], in [3], in test [4], in test [5] and in [6] was below 35% in each case. Besides, the inhibition in test [7], in test [8] and in [9] was below 35% each time.
